Data as given in US5637582A, “Peripheral circulation improving agent” (priority 1992, dated 1997).
Where a name gives a salt, the structure may show the parent alone.

Tests used:
[1] = tested on: femoral artery; experiment: Increase in femoral arterial blood flow in anesthetized dogs, cumulative i.v. dosing (Experimental Example 1); type: in vivo, dog; conditions: 60 min after administration
Method: Adult dogs (one group consisting of a dog) were intravenously given the test compound under anesthesia and artificial respiration successively at intervals of 60 minutes so that the dose can be 10, 30, 100 and 300 μg/kg body weight, and the blood flow of femoral artery was measured with a time course. […] An increase in the femoral arterial blood flow was calculated by subtracting the blood flow before the administration of the first dose of test compound as the standard value (the base line) from that 60 minutes after each administration.

[2] = tested on: femoral artery; experiment: Maximum increase in femoral arterial blood flow in anesthetized dogs, cumulative i.v. dosing (Experimental Example 3); type: in vivo, dog; conditions: maximum during 60 min
Method: Adult dogs (one group consisting of 5 dogs) were intravenously given the test compound under anesthesia and artificial respiration successively at intervals of 60 minutes so that the dose can be 10, 30, 100, 300 and 1000 μg/kg body weight, and the blood flow of femoral artery was measured with a time course. […] An increase in the femoral arterial blood flow was calculated by subtracting the blood flow before the administration of the first dose of test compound as the standard value (the base line) from that of maximum during an interval of 60 minutes after each administration.

[3] = tested on: femoral artery; experiment: Change of femoral arterial blood flow in anesthetized dogs (Experimental Example 4); type: in vivo, dog; conditions: 100 μg/kg i.v.; for Increase in femoral arterial blood flow: 10 minutes after the administration; for AUC60 of the femoral arterial blood flow: 60 minutes after administration
Method: (§1) Each test compound was intravenously administered to adult dogs (one group consisting of 2 or 4 dogs) under anesthesia and artificial respiration at a dose of 100 μg/kg body weight. Femoral arterial blood flow, vertebral arterial blood flow and arterial blood pressure were measured 1, 3, 5, 10, 20 and 30 minutes after the administration. The femoral arterial blood flow and vertebral arterial blood flow were measured with an electromagnetic blood flowmeter (manufactured by Nihon Koden, MFV-2100, trade name) through a flow probe attached to the femoral artery or vertebral artery. The arterial blood pressure was measured with a pressure transducer (manufactured by Millar, MICRO-TIP, Model SPC-350) through a catheter attached to the brachial artery.
(§2) Changes of the femoral arterial blood flow, vertebral arterial blood flow and arterial blood pressure were estimated by comparing the values measured before and after the administration of the test compound.

[4] = tested on: vertebral artery; experiment: Change of vertebral arterial blood flow in anesthetized dogs (Experimental Example 4); conditions: 100 μg/kg i.v.
Method: as §1, §2

[5] = tested on: arterial blood pressure; experiment: Change of arterial blood pressure in anesthetized dogs (Experimental Example 4); conditions: 100 μg/kg i.v.
Method: as §1, §2

[6] = G and H: one minute after, in words

Compound | Increase in femoral arterial blood flow ([1]; 10 μg/kg i.v.) [mL/min] | Increase in femoral arterial blood flow ([1]; 30 μg/kg i.v.) [mL/min] | Increase in femoral arterial blood flow ([1]; 100 μg/kg i.v.) [mL/min] | Increase in femoral arterial blood flow ([1]; 300 μg/kg i.v.) [mL/min] | Increase in femoral arterial blood flow ([2]; 30 μg/kg i.v.) [mL/min] | Increase in femoral arterial blood flow ([2]; 100 μg/kg i.v.) [mL/min] | Increase in femoral arterial blood flow ([2]; 300 μg/kg i.v.) [mL/min] | Increase in femoral arterial blood flow ([2]; 1000 μg/kg i.v.) [mL/min] | Femoral Arterial Blood Flow change ([3]; 3 min) | Femoral Arterial Blood Flow change ([3]; 5 min) | Femoral Arterial Blood Flow change ([3]; 10 min) | Femoral Arterial Blood Flow change ([3]; 20 min) | Femoral Arterial Blood Flow change ([3]; 30 min) | AUC60 of the femoral arterial blood flow [3] [mL] | Vertebral Arterial Blood Flow change (side effects) ([4]; 1 min) | Vertebral Arterial Blood Flow change (side effects) ([4]; 3 min) | Vertebral Arterial Blood Flow change (side effects) ([4]; 5 min) | Vertebral Arterial Blood Flow change (side effects) ([4]; 10 min) | Vertebral Arterial Blood Flow change (side effects) ([4]; 20 min) | Vertebral Arterial Blood Flow change (side effects) ([4]; 30 min) | other results
Cc1ccc([C@H]2Sc3cc(C)ccc3N(CCN(C)C)C(=O)[C@H]2O)cc1 [B] | 22 | 28 | 48 | 74 | 16.4 | 41.4 | 70.2 | 79.2 |  |  |  |  |  |  |  |  |  |  |  |  | Increase in femoral arterial blood flow ([2]; 10 μg/kg i.v.): 10.4 mL/min
CNCCN1C(=O)[C@@H](OC(C)=O)[C@@H](c2ccc(C)cc2)Sc2cc(C)ccc21 [C] | 6 | 19 | 50 | 65 | 6.8 | 25.6 | 44.6 | 49.0 |  |  |  |  |  |  |  |  |  |  |  |  | 
CC(=O)O[C@H]1C(=O)N(CCN(C)C)c2ccc(C)cc2S[C@H]1c1ccc(C)cc1 [G, reference compound] |  |  |  |  |  |  |  |  | 24.0 Δ ml/min | 16.0 Δ ml/min | 9.5 Δ ml/min | 7.5 Δ ml/min | 5.0 Δ ml/min | 475.3 | 26.5 Δ ml/min | 18.0 Δ ml/min | 11.5 Δ ml/min | 7.0 Δ ml/min | 3.5 Δ ml/min | 2.5 Δ ml/min | Femoral Arterial Blood Flow change ([3]; 1 min): 30.0 Δ ml/min; Increase in femoral arterial blood flow ([3]; in words): substantially disappeared; effect on vertebral arterial blood flow [4, 6]: remarkable changes; Arterial Blood Pressure change (side effects) ([5]; 1 min): -11.0 ΔmmHg; Arterial Blood Pressure change (side effects) ([5]; 3 min): -2.5 ΔmmHg; Arterial Blood Pressure change (side effects) ([5]; 5 min): 1.5 ΔmmHg; Arterial Blood Pressure change (side effects) ([5]; 10 min): 1.0 ΔmmHg; Arterial Blood Pressure change (side effects) ([5]; 20 min): 1.0 ΔmmHg; Arterial Blood Pressure change (side effects) ([5]; 30 min): 1.5 ΔmmHg; effect on arterial blood pressure [5, 6]: remarkable changes
CC(=O)O[C@@H]1C(=O)N(CCN(C)C)c2ccc(CO)cc2S[C@@H]1c1ccc(C)cc1 [Compound E, (-)-cis-2-(4-methylphenyl)-3-acetoxy-5-[2-(dimethylamino)ethyl]-8-hydroxymethyl-2,3-dihydro-1,5-benzothiazepin-4(5H)-one oxalate] |  | 15 | 37 | 36 | 15.6 | 55.6 | 69.2 | 68.6 |  |  |  |  |  |  |  |  |  |  |  |  | 
CNCCN1C(=O)[C@@H](O)[C@@H](c2ccc(C)cc2)Sc2cc(C)ccc21 [D] |  |  | 11 | 35 |  |  |  |  |  |  |  |  |  |  |  |  |  |  |  |  | 
COc1ccc([C@H]2Sc3ccccc3N(CCN(C)C)C(=O)[C@H]2OC(C)=O)cc1 [F] | 11 | 21 | 27 | 37 | 21.0 | 27.3 | 37.0 |  | 36.0 Δ ml/min | 48.0 Δ ml/min | 63.5 Δ ml/min | 64.5 Δ ml/min | 54.5 Δ ml/min | 2977.0 | -0.5 Δ ml/min | -1.0 Δ ml/min | -1.0 Δ ml/min | 0.0 Δ ml/min | 0.0 Δ ml/min | 0.5 Δ ml/min | femoral arterial blood flow increasing activity ([3]; even after 30 minutes, in words): excellent femoral arterial blood flow increasing activity; Arterial Blood Pressure change (side effects) ([5]; 1 min): -1.5 ΔmmHg; Arterial Blood Pressure change (side effects) ([5]; 3 min): -0.5 ΔmmHg; Arterial Blood Pressure change (side effects) ([5]; 5 min): 1.0 ΔmmHg; Arterial Blood Pressure change (side effects) ([5]; 10 min): 1.5 ΔmmHg; Arterial Blood Pressure change (side effects) ([5]; 20 min): 1.5 ΔmmHg; Arterial Blood Pressure change (side effects) ([5]; 30 min): 2.5 ΔmmHg; Increase in femoral arterial blood flow ([2]; 10 μg/kg i.v.): 10.7 mL/min
COc1ccc([C@@H]2Sc3ccccc3N(CCN(C)C)C(=O)[C@@H]2OC(C)=O)cc1 [H, reference compound] |  |  |  |  |  |  |  |  | 34.5 Δ ml/min | 22.5 Δ ml/min | 8.0 Δ ml/min | 1.0 Δ ml/min | -1.5 Δ ml/min | 300.5 | 25.5 Δ ml/min | 18.0 Δ ml/min | 13.5 Δ ml/min | 7.5 Δ ml/min | 4.5 Δ ml/min | 2.0 Δ ml/min | Femoral Arterial Blood Flow change ([3]; 1 min): 38.5 Δ ml/min; Increase in femoral arterial blood flow ([3]; in words): substantially disappeared; Arterial Blood Pressure change (side effects) ([5]; 1 min): -11.5 ΔmmHg; Arterial Blood Pressure change (side effects) ([5]; 3 min): -4.5 ΔmmHg; Arterial Blood Pressure change (side effects) ([5]; 5 min): -2.0 ΔmmHg; Arterial Blood Pressure change (side effects) ([5]; 10 min): -1.0 ΔmmHg; Arterial Blood Pressure change (side effects) ([5]; 20 min): 0.0 ΔmmHg; Arterial Blood Pressure change (side effects) ([5]; 30 min): 1.0 ΔmmHg
